Holding throughout (experiment): biochemical
Holding throughout (parameters): thermal shift assay (real-time PCR machine), melting temperature shift of recombinant bromodomains at 2 uM protein

One test deals with T1, BRWD3(2) (Homo sapiens, UniProt Q6RI45).
T1 construct: bromodomain 2
As to the method: (§1) The recombinant bromodomains at 2 μM were mixed with 10 μM inhibitors. The assays and data evaluation for melting temperatures were performed using a Real-Time PCR Mx3005p machine (Stratagene) and the protocols previously described. Experiments profiling the final compound (PNZ5) were performed in quadruplicates. […] Since its discovery in our own labs, similar inhibitors have also been disclosed by researchers at Boehringer Ingelheim [reference: patent, WO 2014/154760 [31]]. The inhibitor contains two possible acetyl-lysine mimetic moieties. In order to obtain molecular insights on the interaction of the developed inhibitor, the crystal structure of the first bromodomain of BRD4 in complex with PNZ5 was solved at 1.85 Å (Figure 2C and Supplementary Table 4, 5FBX.pdb). The inhibitor, coordinating residues and water molecules were well defined by the electron density. The dimethylisoxazole moiety mimicked the acetyl lysine side chain and formed two canonical hydrogen-bond interactions with Asn140 and water mediated hydrogen-bond with Tyr 97 (Figure 2C). The common network of waters within the binding site was also conserved in the BRD4(1)-PNZ5 complex. The compound was further stabilized by lipophilic interactions with residues forming the binding site Leu92, Leu94, Ile146. The [compound left out] substituent was well accommodated next to the WPF shelf, as well as the N1-methyl substituent that formed hydrophobic interactions with Trp81. The carbonyl on the isoindolinone established a water-mediated hydrogen bond with Lys91.

In the next test the target is T2, ATAD2 (Homo sapiens, UniProt Q6PL18).
T2 construct: bromodomain
The protocol: as §1

The next test addresses T3, BRPF3 (Homo sapiens, UniProt Q9ULD4).
T3 construct: bromodomain
As to the method:
as §1

Another test concerns the target T4, TIF1-phd-bromo (Homo sapiens, UniProt O15164).
T4 construct: gene TRIM24; PHD-bromodomain
As to the method: as §1

In the next test the target is T5, SMARCA4 (Homo sapiens, UniProt P51532).
T5 construct: bromodomain
As to the method:
as §1

The target of test [1] is T6, BRD4(1), first bromodomain of BRD4 (Homo sapiens, UniProt O60885).
T6 construct: first bromodomain; BRD4_HUMAN O60884-1 fragment 44-168 (crystallography)
As to the method:
as §1

Another test concerns the target T7, FALZ (Homo sapiens, UniProt Q12830).
T7 construct: gene BPTF; bromodomain
The protocol: as §1

A further test concerns the target T8, SP140 (Homo sapiens, UniProt Q13342).
T8 construct: bromodomain
As to the method: as §1

A further test deals with T9, BRD2(1) (Homo sapiens, UniProt P25440).
T9 construct: bromodomain 1
As to the method: as §1

The target in the next test is T10, BAZ1B (Homo sapiens, UniProt Q9UIG0).
T10 construct: bromodomain
The protocol: as §1

The next test concerns the target T11, BRD2(2) (Homo sapiens, UniProt P25440).
T11 construct: bromodomain 2
The protocol: as §1

In a further test the target is T12, PHIP(2) (Homo sapiens, UniProt Q8WWQ0).
T12 construct: bromodomain 2
The protocol:
as §1

For another test, the target named is T13, MLL (Homo sapiens, UniProt Q03164).
T13 construct: gene KMT2A; bromodomain
The protocol: as §1

A further test has as its target T14, BRD3(1) (Homo sapiens, UniProt Q15059).
T14 construct: bromodomain 1
As to the method: as §1

A further test has as its target T15, TIF1-bromo (Homo sapiens, UniProt O15164).
T15 construct: gene TRIM24; bromodomain
The protocol: as §1

In another test the target is T16, TAF1(2) (Homo sapiens, UniProt P21675).
T16 construct: bromodomain 2
The protocol:
as §1

A further test addresses T17, BRDT(1) (Homo sapiens, UniProt Q58F21).
T17 construct: bromodomain 1
The protocol:
as §1

Another test addresses T18, TAF1(1) (Homo sapiens, UniProt P21675).
T18 construct: bromodomain 1
As to the method:
as §1

For another test, the target named is T19, SP140L (Homo sapiens, UniProt Q9H930).
T19 construct: bromodomain
The protocol: as §1

Another test has as its target T20, BRD1 (Homo sapiens, UniProt O95696).
T20 construct: bromodomain
The protocol:
as §1

SMILES strings stand for the structures.

T14 sequence (Q15059 whole entry): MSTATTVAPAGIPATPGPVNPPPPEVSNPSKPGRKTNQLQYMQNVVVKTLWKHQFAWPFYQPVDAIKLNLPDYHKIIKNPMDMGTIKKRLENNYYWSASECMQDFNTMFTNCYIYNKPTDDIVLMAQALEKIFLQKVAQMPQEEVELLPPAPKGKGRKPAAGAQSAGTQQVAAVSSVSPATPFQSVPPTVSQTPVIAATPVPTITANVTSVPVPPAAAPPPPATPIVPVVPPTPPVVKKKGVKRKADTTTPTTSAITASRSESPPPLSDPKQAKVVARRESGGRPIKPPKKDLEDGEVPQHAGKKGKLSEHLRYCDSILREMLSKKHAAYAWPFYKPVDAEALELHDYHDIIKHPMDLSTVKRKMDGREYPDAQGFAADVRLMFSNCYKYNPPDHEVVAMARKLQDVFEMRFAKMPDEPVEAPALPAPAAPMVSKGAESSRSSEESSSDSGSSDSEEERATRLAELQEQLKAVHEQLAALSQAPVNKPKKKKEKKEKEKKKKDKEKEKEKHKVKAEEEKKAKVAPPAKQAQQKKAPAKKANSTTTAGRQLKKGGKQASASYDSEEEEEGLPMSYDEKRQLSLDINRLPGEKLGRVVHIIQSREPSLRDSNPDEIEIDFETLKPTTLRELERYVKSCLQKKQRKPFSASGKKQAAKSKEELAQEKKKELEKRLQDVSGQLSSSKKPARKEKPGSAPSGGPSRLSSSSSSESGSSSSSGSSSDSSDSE
T20 sequence (O95696 whole entry): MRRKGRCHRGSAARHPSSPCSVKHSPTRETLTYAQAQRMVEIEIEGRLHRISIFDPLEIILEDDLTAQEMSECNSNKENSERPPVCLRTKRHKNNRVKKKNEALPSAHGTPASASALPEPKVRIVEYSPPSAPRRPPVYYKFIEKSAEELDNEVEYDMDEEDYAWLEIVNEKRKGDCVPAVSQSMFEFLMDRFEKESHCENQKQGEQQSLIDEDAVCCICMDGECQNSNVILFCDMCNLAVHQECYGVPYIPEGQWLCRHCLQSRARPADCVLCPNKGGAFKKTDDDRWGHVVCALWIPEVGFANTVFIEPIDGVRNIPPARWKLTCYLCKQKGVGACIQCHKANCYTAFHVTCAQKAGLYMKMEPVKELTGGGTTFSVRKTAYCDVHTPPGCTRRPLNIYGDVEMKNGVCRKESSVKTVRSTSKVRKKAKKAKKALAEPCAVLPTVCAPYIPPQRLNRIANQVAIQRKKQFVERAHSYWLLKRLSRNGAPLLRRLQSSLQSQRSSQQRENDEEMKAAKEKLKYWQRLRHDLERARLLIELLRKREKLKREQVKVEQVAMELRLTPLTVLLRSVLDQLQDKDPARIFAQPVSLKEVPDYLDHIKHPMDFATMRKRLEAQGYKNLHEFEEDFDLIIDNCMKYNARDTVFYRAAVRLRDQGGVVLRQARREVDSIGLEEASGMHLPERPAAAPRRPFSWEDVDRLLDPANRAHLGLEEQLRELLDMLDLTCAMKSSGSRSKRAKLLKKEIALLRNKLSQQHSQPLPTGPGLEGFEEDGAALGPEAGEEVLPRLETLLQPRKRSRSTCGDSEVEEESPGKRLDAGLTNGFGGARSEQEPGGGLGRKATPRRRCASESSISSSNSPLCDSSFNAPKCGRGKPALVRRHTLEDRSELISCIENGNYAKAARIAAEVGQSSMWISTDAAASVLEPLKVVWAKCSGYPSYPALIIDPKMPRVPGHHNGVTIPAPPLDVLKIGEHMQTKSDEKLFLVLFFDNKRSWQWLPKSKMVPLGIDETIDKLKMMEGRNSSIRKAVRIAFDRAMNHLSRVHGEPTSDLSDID
T8 sequence (Q13342 whole entry): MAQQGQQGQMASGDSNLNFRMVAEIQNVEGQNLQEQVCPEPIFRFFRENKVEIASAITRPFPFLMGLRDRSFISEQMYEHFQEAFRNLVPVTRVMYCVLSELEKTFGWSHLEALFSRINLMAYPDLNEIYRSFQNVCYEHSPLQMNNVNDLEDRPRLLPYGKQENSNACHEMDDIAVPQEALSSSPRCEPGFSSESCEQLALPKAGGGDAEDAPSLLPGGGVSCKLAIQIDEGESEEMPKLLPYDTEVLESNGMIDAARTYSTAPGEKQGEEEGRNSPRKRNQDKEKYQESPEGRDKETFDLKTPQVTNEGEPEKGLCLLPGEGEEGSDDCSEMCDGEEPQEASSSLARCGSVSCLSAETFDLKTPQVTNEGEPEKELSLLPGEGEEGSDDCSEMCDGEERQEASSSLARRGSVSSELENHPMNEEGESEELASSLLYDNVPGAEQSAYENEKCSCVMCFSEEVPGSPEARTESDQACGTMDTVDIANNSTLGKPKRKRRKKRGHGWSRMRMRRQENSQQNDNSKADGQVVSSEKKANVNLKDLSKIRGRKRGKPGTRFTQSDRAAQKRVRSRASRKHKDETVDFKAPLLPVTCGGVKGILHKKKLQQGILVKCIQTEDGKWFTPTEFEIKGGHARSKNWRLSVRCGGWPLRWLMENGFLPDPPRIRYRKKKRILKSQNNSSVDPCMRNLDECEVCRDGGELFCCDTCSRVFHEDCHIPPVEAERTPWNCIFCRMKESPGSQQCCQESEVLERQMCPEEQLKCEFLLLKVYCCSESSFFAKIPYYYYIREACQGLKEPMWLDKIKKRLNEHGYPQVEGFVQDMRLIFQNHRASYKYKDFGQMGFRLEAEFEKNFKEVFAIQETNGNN
T3 sequence (Q9ULD4 whole entry): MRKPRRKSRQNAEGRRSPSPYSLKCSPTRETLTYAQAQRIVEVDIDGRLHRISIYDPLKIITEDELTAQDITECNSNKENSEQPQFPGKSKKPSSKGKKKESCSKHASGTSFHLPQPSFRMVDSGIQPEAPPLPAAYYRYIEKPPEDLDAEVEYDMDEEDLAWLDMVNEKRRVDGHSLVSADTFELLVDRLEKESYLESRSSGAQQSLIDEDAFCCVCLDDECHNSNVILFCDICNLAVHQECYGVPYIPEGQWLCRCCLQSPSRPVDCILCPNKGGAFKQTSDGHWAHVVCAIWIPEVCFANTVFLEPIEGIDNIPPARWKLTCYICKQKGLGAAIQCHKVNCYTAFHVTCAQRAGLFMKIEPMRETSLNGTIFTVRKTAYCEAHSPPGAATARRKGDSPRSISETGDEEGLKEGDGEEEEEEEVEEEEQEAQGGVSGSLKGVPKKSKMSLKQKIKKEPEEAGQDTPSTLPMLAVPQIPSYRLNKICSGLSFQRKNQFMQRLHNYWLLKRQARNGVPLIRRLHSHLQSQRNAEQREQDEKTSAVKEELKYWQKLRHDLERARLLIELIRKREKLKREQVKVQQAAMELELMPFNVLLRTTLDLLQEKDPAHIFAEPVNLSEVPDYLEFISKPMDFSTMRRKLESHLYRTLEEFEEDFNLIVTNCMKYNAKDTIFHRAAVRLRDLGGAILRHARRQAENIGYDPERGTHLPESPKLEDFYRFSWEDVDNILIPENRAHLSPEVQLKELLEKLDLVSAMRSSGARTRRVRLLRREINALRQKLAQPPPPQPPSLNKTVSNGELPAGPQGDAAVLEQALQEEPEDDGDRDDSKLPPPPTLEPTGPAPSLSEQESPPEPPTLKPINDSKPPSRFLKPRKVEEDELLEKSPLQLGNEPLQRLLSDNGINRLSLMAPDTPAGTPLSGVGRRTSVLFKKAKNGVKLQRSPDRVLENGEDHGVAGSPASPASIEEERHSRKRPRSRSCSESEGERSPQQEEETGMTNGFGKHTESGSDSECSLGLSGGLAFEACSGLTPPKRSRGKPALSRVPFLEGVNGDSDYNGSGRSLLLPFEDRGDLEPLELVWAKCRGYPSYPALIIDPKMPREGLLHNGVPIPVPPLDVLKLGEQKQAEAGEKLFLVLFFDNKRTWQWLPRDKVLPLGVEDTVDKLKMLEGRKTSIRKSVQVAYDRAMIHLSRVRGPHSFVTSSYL
T4 sequence (O15164 whole entry): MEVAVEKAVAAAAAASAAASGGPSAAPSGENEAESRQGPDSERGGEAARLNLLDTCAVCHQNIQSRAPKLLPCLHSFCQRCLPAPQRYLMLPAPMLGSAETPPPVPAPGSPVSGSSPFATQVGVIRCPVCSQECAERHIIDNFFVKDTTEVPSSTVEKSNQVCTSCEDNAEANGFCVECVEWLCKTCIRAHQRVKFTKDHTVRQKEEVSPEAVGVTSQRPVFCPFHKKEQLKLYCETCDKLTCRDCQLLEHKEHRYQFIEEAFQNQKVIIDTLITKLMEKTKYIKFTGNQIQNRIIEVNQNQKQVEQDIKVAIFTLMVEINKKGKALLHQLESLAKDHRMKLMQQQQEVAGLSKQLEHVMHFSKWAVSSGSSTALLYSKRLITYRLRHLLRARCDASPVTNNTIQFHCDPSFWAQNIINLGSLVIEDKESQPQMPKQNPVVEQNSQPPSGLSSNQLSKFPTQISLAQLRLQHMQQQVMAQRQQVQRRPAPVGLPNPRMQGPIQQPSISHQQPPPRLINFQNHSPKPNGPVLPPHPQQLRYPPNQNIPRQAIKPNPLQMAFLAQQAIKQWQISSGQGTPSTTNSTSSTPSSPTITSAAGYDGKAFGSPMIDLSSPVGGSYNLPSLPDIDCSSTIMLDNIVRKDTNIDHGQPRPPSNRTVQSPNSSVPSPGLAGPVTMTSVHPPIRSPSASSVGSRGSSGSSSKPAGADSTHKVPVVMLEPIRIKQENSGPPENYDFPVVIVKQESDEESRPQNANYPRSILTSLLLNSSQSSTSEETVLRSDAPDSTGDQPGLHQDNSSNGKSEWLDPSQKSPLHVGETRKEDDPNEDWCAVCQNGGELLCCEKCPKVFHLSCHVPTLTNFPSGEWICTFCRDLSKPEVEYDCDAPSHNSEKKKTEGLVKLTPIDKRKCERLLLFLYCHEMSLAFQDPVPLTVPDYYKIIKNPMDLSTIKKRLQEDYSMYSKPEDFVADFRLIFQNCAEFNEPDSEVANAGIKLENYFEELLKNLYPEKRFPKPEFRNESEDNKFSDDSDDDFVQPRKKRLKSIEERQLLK
T15 sequence (O15164 whole entry): as above

Consider `Cc1noc(C)c1-c1ccc2c(c1)[C@H](c1ccccc1)N(C)C2=O` [PNZ5], for which the ΔTm (usually the change in melting temperature against a reference sample) at 10 µM at BRWD3(2) is 0.74 °C; on ATAD2 it was 0.13 °C; on BRPF3, 0.95 °C; on TIF1-phd-bromo it was 0.06 °C; at SMARCA4, 0.04 °C; in test [1] it was 10.1 °C. Besides, the ΔTm at 10 µM at FALZ stood at 0.22 °C; at SP140 it was 0.87 °C; at BRD2(1), 7.94 °C; on BAZ1B it was 1.67 °C; on BRD2(2), 8.13 °C; on PHIP(2), 0.22 °C. Moreover, the ΔTm at 10 µM was found to be 0.49 °C at MLL; 9.79 °C on BRD3(1); 0.86 °C on TIF1-bromo; 0.19 °C at TAF1(2); 6.19 °C at BRDT(1); 0.09 °C at TAF1(1). Also, the ΔTm at 10 µM on SP140L is 1.05 °C; on BRD1, 1.03 °C.

(Values after PMC5190074, “BET inhibition as a new strategy for the treatment of gastric cancer” (Oncotarget, 2016).)
